According to ChEMBL document CHEMBL1212769, “Multiple-dose safety, tolerability, and pharmacokinetics of oral nemonoxacin (TG-873870) in healthy volunteers” (Antimicrob Agents Chemother, 2010):

Columns and labels:
[1] = Clearance in human assessed as compound recovered in urine at 250 mg/kg, po measured on day 1 up to 24 hrs post dose; assay type: ADME, organism-based; design: dose 250 mg/kg, route oral; details: read-out: amount in urine
Streptococcus pneumoniae = test: Ratio of fAUC (0 to 24 hrs) to MIC90 for Streptococcus pneumoniae; assay type: functional
[2] = Clearance in human assessed as compound recovered in urine at 1000mg/kg, po measured on day 10 up to 24 hrs post dose; assay type: ADME, organism-based; details: read-out: amount in urine
[3] = Cmax in human at 500 […], po measured on day 10; assay type: ADME, organism-based; design: dose 500 mg/kg, route oral; details: in vivo
[4] = Cmax in human at 75 […], po measured on day 1; assay type: ADME, organism-based; design: dose 75 mg/kg, route oral; details: in vivo
[5] = AUC (0 to 24 hrs) in human at 75 mg/kg, po measured on day 10; assay type: ADME, organism-based; design: time < 24 hr, dose 75 mg/kg, route oral; details: plasma
[6] = Clearance in human assessed as compound recovered in urine at 250 mg/kg, po measured on day 10 up to 24 hrs post dose; assay type: ADME, organism-based; design: dose 250 mg/kg, route oral; details: read-out: amount in urine
[7] = Terminal half life in human at 1000 […], po measured on day 10; assay type: ADME, organism-based; design: route oral; details: in vivo, read-out: beta t1/2 (converted)
Homo sapiens [8] = test: Toxicity in human assessed as occurrence of diarrhea at 750 […], po administered as single dose; assay type: organism-based; design: route oral; details: in vivo
[9] = Renal clearance in human at 1000 […], po measured on day 10; assay type: ADME, organism-based, Kidney; design: route oral; details: in vivo, read-out: CL_renal (converted)
Homo sapiens [10] = test: Toxicity in human assessed as occurrence of pruritus at 500 […], po administered as single dose; assay type: organism-based; design: route oral; details: in vivo
[11] = Tmax in human at 1000 […], po measured on day 1; assay type: ADME, organism-based; design: route oral; details: in vivo
[12] = Oral clearance in human at 750 […] measured on day 1; assay type: ADME, organism-based; details: in vivo
Homo sapiens [13] = test: Toxicity in human assessed as occurrence of dermatitis at 250 […], po administered as single dose; assay type: organism-based; design: route oral; details: in vivo
[14] = Clearance in human assessed as compound recovered in urine at 75 mg/kg, po measured on day 10 up to 24 hrs post dose; assay type: ADME, organism-based; design: dose 75 mg/kg, route oral; details: read-out: amount in urine
[15] = AUC (0 to last) in human at 250 mg/kg, po measured on day 1; assay type: ADME, organism-based; design: time 0 - last, dose 250 mg/kg, route oral; details: plasma
Homo sapiens [16] = test: Toxicity in human assessed as occurrence of somnolence at 750 […], po administered as single dose; assay type: organism-based; design: route oral; details: in vivo
Homo sapiens [17] = test: Toxicity in human assessed as occurrence of pollakiuria at 250 […], po administered as single dose; assay type: organism-based; design: route oral; details: in vivo
[18] = Renal clearance in human at 500 […], po measured on day 10; assay type: ADME, organism-based, Kidney; design: route oral; details: in vivo, read-out: CL_renal (converted)
Homo sapiens [19] = test: Toxicity in human assessed as occurrence of rashes at 1000 […], po administered as single dose; assay type: organism-based; design: route oral; details: in vivo
[20] = Cmax in human at 1000 […], po measured on day 1; assay type: ADME, organism-based; design: dose 1000 mg/kg, route oral; details: in vivo
Homo sapiens [21] = test: Toxicity in human assessed as occurrence of pollakiuria at 75 […], po administered as single dose; assay type: organism-based; design: route oral; details: in vivo
[22] = Clearance in human assessed as compound recovered in urine at 750 mg/kg, po measured on day 1 up to 24 hrs post dose; assay type: ADME, organism-based; design: dose 750 mg/kg, route oral; details: read-out: amount in urine
[23] = Renal clearance in human at 75 […], po measured on day 1; assay type: ADME, organism-based, Kidney; design: route oral; details: in vivo, read-out: CL_renal (converted)
[24] = Terminal half life in human at 750 […], po measured on day 10; assay type: ADME, organism-based; design: route oral; details: in vivo, read-out: beta t1/2 (converted)
Homo sapiens [25] = test: Toxicity in human assessed as occurrence of abdominal pain at 1000 […], po administered as single dose; assay type: organism-based, Abdomen; design: route oral; details: in vivo
[26] = Oral clearance in human at 250 mg/kg measured on day 1; assay type: ADME, organism-based; design: dose 250 mg/kg; details: in vivo
[27] = Oral clearance in human at 75 mg/kg measured on day 10; assay type: ADME, organism-based; design: dose 75 mg/kg; details: in vivo
[28] = AUC (0 to last) in human at 750 mg/kg, po measured on day 10; assay type: ADME, organism-based; design: time 0 - last, dose 750 mg/kg, route oral; details: plasma
[29] = Cmax in human at 250 […], po measured on day 1; assay type: ADME, organism-based; design: dose 250 mg/kg, route oral; details: in vivo
[30] = AUC (0 to 24 hrs) in human at 250 mg/kg, po measured on day 10; assay type: ADME, organism-based; design: time < 24 hr, dose 250 mg/kg, route oral; details: plasma
[31] = AUC (0 to 24 hrs) in human at 250 mg/kg, po measured on day 1; assay type: ADME, organism-based; design: time < 24 hr, dose 250 mg/kg, route oral; details: plasma
[32] = AUC (0 to last) in human at 500 mg/kg, po measured on day 10; assay type: ADME, organism-based; design: time 0 - last, dose 500 mg/kg, route oral; details: plasma
[33] = Tmax in human at 750 […], po measured on day 10; assay type: ADME, organism-based; design: dose 750 mg/kg, route oral; details: in vivo
[34] = Renal clearance in human at 250 […], po measured on day 10; assay type: ADME, organism-based, Kidney; design: route oral; details: in vivo, read-out: CL_renal (converted)
[35] = AUC (0 to last) in human at 250 mg/kg, po measured on day 10; assay type: ADME, organism-based; design: time 0 - last, dose 250 mg/kg, route oral; details: plasma
[36] = Renal clearance in human at 750 […], po measured on day 1; assay type: ADME, organism-based, Kidney; design: route oral; details: in vivo, read-out: CL_renal (converted)
[37] = Clearance in human assessed as compound recovered in urine at 500 mg/kg, po measured on day 1 up to 24 hrs post dose; assay type: ADME, organism-based; design: dose 500 mg/kg, route oral; details: read-out: amount in urine
[38] = Oral clearance in human at 500 mg/kg measured on day 10; assay type: ADME, organism-based; design: dose 500 mg/kg; details: in vivo
[39] = AUC (0 to 24 hrs) in human at 750 mg/kg, po measured on day 1; assay type: ADME, organism-based; design: time < 24 hr, dose 750 mg/kg, route oral; details: plasma
[40] = Cmax in human at 75 […], po measured on day 10; assay type: ADME, organism-based; design: dose 75 mg/kg, route oral; details: in vivo
[41] = AUC (0 to 24 hrs) in human at 1000 […], po measured on day 1; assay type: ADME, organism-based; design: time < 24 hr, dose 1000 mg/kg, route oral; details: plasma
[42] = Tmax in human at 500 […], po measured on day 1; assay type: ADME, organism-based; design: route oral; details: in vivo
[43] = Tmax in human at 250 […], po measured on day 10; assay type: ADME, organism-based; design: dose 250 mg/kg, route oral; details: in vivo
[44] = AUC(0 to last) in human at 500 mg/kg, po measured on day 1; assay type: ADME, organism-based; design: time 0 - last, dose 500 mg/kg, route oral; details: plasma
[45] = Oral clearance in human at 750 […] measured on day 10; assay type: ADME, organism-based; details: in vivo
[46] = Tmax in human at 500 […], po measured on day 16; assay type: ADME, organism-based; design: dose 500 mg/kg, route oral; details: in vivo
[47] = Tmax in human at 750 […], po measured on day 1; assay type: ADME, organism-based; design: route oral; details: in vivo
[48] = AUC (0 to 24 hrs)in human at 500 mg/kg, po measured on day 10; assay type: ADME, organism-based; design: time < 24 hr, dose 500 mg/kg, route oral; details: plasma
Homo sapiens [49] = test: Toxicity in human assessed as occurrence of abdominal pain at 250 […], po administered as single dose; assay type: organism-based, Abdomen; design: route oral; details: in vivo
[50] = AUC (0 to 24 hrs) in human at 750 mg/kg, po measured on day 10; assay type: ADME, organism-based; design: time < 24 hr, dose 750 mg/kg, route oral; details: plasma
Homo sapiens [51] = test: Toxicity in human assessed as occurrence of somnolence at 250 […], po administered as single dose; assay type: organism-based; design: route oral; details: in vivo
[52] = Renal clearance in human at 500 […], po measured on day 1; assay type: ADME, organism-based, Kidney; design: route oral; details: in vivo, read-out: CL_renal (converted)
[53] = Terminal half life in human at 75 […], po measured on day 10; assay type: ADME, organism-based; design: route oral; details: in vivo, read-out: beta t1/2 (converted)

COc1c(N2C[C@@H](C)C[C@H](N)C2)ccc2c(=O)c(C(=O)O)cn(C3CC3)c12 [NEMONOXACIN]
dose excreted at 24 h [1]: 36.8%
Ratio (Streptococcus pneumoniae): > 100
dose excreted at 24 h [2]: 48.6%
Cmax [3]: 5560 ng/mL
Cmax [4]: 502 ng/mL
AUC at 24 h [5]: 4270 ng·h/mL
dose excreted at 24 h [6]: 49.9%
half-life [7]: 19.4 h
Activity (Homo sapiens [8]): 0%
CL renal [9]: 115 mL/min
Activity (Homo sapiens [10]): 0%
Tmax [11]: 2 h
CL/F [12]: 252 mL/min
Activity (Homo sapiens [13]): 0%
dose excreted at 24 h [14]: 56.7%
AUC(0-t) [15]: 13700 ng·h/mL
Activity (Homo sapiens [16]): 0%
Activity (Homo sapiens [17]): 0%
CL renal [18]: 131 mL/min
Activity (Homo sapiens [19]): 0%
Cmax [20]: 7750 ng/mL
Activity (Homo sapiens [21]): 0%
dose excreted at 24 h [22]: 47.1%
CL renal [23]: 198 mL/min
half-life [24]: 19.7 h
Activity (Homo sapiens [25]): 0%
CL/F [26]: 279 mL/min
CL/F [27]: 224 mL/min
AUC(0-t) [28]: 69300 ng·h/mL
Cmax [29]: 2000 ng/mL
AUC at 24 h [30]: 16100 ng·h/mL
AUC(0-t) at 24 h [31]: 13700 ng·h/mL
AUC(0-t) [32]: 46700 ng·h/mL
Tmax [33]: 1.51 h
CL renal [34]: 129 mL/min
AUC(0-t) [35]: 18700 ng·h/mL
CL renal [36]: 133 mL/min
dose excreted at 24 h [37]: 42.2%
CL/F [38]: 184 mL/min
AUC(0-t) at 24 h [39]: 46100 ng·h/mL
Cmax [40]: 514 ng/mL
AUC(0-t) at 24 h [41]: 59600 ng·h/mL
Tmax [42]: 1 h
Tmax [43]: 1.09 h
AUC(0-t) [44]: 31600 ng·h/mL
CL/F [45]: 189 mL/min
Tmax [46]: 3.07 h
Tmax [47]: 1.5 h
AUC at 24 h [48]: 38600 ng·h/mL
Activity (Homo sapiens [49]): 0%
AUC at 24 h [50]: 58400 ng·h/mL
Activity (Homo sapiens [51]): 0%
CL renal [52]: 115 mL/min
half-life [53]: 23 h
